Data reported in paper PMC12022975, “NMR^2-Based Drug Discovery Pipeline Presented on the Oncogenic Protein KRAS” (Journal of the American Chemical Society, 2025).
Where two headings read alike, the source gives them in different places.

Experiments:
KRAS G12V GMP-PNP [1] = molecular target: T1, KRAS G12V GMP-PNP (Homo sapiens, UniProt P01116, G12V); assay: Ligand-titrated [15N,1H]-HSQC affinity determination (TITAN line shape analysis); assay type: binding
T1 construct: His-tag (TEV-cleavable) (cleaved yes); made in house; host or cells: E. coli BL21* DE3
Procedure: A detailed summary for each ligand can be found in the Supporting Information. The NMR data were processed with nmrpipe, and the affinity was analyzed with TITAN.[29]
The amide signals of L6, V7, T74, and G75 were analyzed using the line shape analysis software TITAN.[29] Additionally, the chemical shift perturbation binding curve was analyzed.
MHz spectrometer equipped with a cryoprobe and SampleJet.
4, 5, 9: [15N, 1H]-sofastHSQC experiments were done on a Bruker Ascend console NEO 500 MHz with a prodigy probe head
titrated to ~100 µM KRAS.
spectrometer equipped with a cryoprobe.
Table SI1: Summary of all [1H, 1H] - NOESY spectra measured for all compounds which a NMR2
(1H) [MS] (1H) [MS] [MS] TIME [MS] [MHZ] TIME PER NOESY [H]

KRAS G12V GMP-PNP [2] = molecular target: T1, KRAS G12V GMP-PNP; assay: STD-NMR screening of the DSI-poised fragment library; assay type: binding; conditions: STD-NMR hit mark; mixtures of six, 600 μM per ligand, 12 μM KRAS; hit if S/N ratio greater than 5
Procedure: The STD-NMR and [^15N,^1H]-HSQC screening of the DSI-poised fragment library was performed on a Bruker Avance III HD 600 MHz spectrometer equipped with a cryoprobe and SampleJet. […] Analysis was performed in TopSpin 4.1 and CcpNMR 3.1.[28]
The DSI-poised fragment library comprises 890 molecules, designed such that analogues are readily accessible on the market and can be quickly synthesized.

[3] = TITAN analysis of L6, V7, T74, G75 amide signals, no saturation reached, interpret with caution, read-out: KD

Row | SMILES | Kd (KRAS G12V GMP-PNP [1]; [3]) | STD (KRAS G12V GMP-PNP [2]) | Kd (KRAS G12V GMP-PNP [1])
1 | c1coc(CNc2nc3ccccc3[nH]2)c1 [fragment 1, C(c1ccco1)Nc1nc(cccc2)c2[nH]1] | 1.2 mM | √ | 
2 | O=C(CN1CCCC1)Nc1cccc(Cl)c1 [compound 12] |  | √ | 
3 | COc1ccc2sc(N)nc2c1 [compound 10] |  | √ | 5.9 mM
4 | COc1ccc(C)cc1NC(=O)Nn1cnnc1 [compound 6] | 15 mM | √ | 
5 | CS(=O)(=O)Cc1nc2ccccc2[nH]1 [compound 11] |  | √ | 
6 | COc1ccc2[nH]cc(CN(C)C)c2c1 [compound 13] |  | √ | 
7 | Cc1cc2cc[nH]c2cc1C [compound 14] | 3.2 mM |  | 
8 | CNCc1cnn(-c2ccccc2)c1 [compound 9] | 3.3 mM | √ | 
9 | Nc1ccc(S(=O)(=O)Nc2ccccc2)cc1 [compound 7] | 5.9 mM | √ | 
10 | N=c1sccn1CC(=O)Nc1ccc(F)cc1 [compound 4] | 10 mM | √ | 
11 | O=C(O)/C=C/c1c[nH]c2ccccc12 [compound 16] | 4.5 mM |  | 
12 | Cc1[nH]ncc1CNc1ccccc1F [fragment 5, Cc1n[nH]cc1CNc(cccc1)c1F] | 5.2 mM | √ | 
